Results taken from ChEMBL document CHEMBL3751700, “Therapeutic Potential of GPR120 Agonists for the Treatment of Type 2 Diabetes” (ACS Med Chem Lett, 2015).

What was measured:
Mus musculus [1] = assay: Antidiabetic activity in C57bl6 mouse assessed as glucose level at 30 mg/kg by intraperitoneal glucose tolerance test; assay type: functional
Mus musculus [2] = assay: Antidiabetic activity in C57bl6 mouse assessed as glucose level at 3 mg/kg by intraperitoneal glucose tolerance test; assay type: functional
[3] = Agonist activity at human GPR120 long isoform transfected in CHO-K1 cells by beta-arrestin recruitment assay; assay type: cell-based
[4] = Agonist activity at human GPR120 short isoform transfected in CHO-K1 cells by beta-arrestin recruitment assay; assay type: cell-based
[5] = Agonist activity at human GPR120 long isoform transfected in HEK293 cells assessed as calcium flux by FLIPR assay; assay type: cell-based
Mus musculus [6] = assay: Antidiabetic activity in C57bl6 mouse assessed as glucose level at 10 mg/kg by intraperitoneal glucose tolerance test; assay type: functional
Mus musculus [7] = assay: Antidiabetic activity in C57bl6 mouse assessed as glucose level at 3 mg/kg by oral glucose tolerance test; assay type: functional
Mus musculus [8] = assay: Antidiabetic activity in DIO mouse assessed as glucose level at 10 mg/kg measured from -30 to 90 mins by oral glucose tolerance test; assay type: functional
[9] = Agonist activity at human GPR120 short isoform transfected in HEK293 cells assessed as calcium flux by FLIPR assay; assay type: cell-based

| Compound | Activity (Mus musculus [1]) [%] | Activity (Mus musculus [2]) [%] | EC50 [3] [µM] | EC50 [4] [µM] | EC50 [5] [µM] | Activity (Mus musculus [6]) [%] | Activity (Mus musculus [7]) [%] | Activity (Mus musculus [8]) [%] | EC50 [9] [µM] |
| --- | --- | --- | --- | --- | --- | --- | --- | --- | --- |
| Cc1c(CCC(=O)O)ccc(OCc2c(-c3ccc(Cl)cc3)nsc2C(F)(F)F)c1C | -53 | -34 | 0.141 | 0.1 | 0.155 | -61 |  |  |  |
| Cc1ccccc1-c1snc(Cl)c1COc1c(F)cc(CCC(=O)O)cc1F |  |  | 0.322 | 0.99 | 0.344 |  |  |  |  |
| CCc1ccc(-c2cc(F)sc2COc2ccc(CCC(=O)O)c(C)c2C)cc1 |  |  | 0.218 | 0.205 | 0.024 |  |  |  |  |
| O=C(O)CCc1cc(F)c(OCc2c(C3CCCC3)nsc2C(F)(F)F)c(F)c1 |  | -14 | 0.278 | 0.139 | 0.037 |  | -37 | -0.52 |  |
| Cc1c(CCC(=O)O)ccc(OCc2sc(F)cc2-c2ccc(Cl)cc2)c1C |  |  |  | 0.083 | 0.049 |  |  |  |  |
| OCCCc1cc(F)c(OCc2c(-c3ccc(Cl)cc3F)nsc2C(F)(F)F)c(F)c1 |  |  |  | 0.08 |  |  |  |  | 0.139 |
